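Cultured in 96-well plates, cells were exposed to test compound for 48 hours across five concentrations. The concentration for 50% growth inhibition is given as GI50.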 Activity calls are given as the source filed them. No stated cut-off is given here; in the data, active = GI50 up to about 1.1 µM and inactive = higher.
Key:
Assay in all cases: DTP human tumour cell line panel, 48 h
[1] = test system: A498
[2] = test system: A549
[3] = test system: CCRF-CEM
[4] = test system: COLO 205
[5] = test system: DMS-114
[6] = test system: DMS-273
[7] = test system: EKVX
[8] = test system: HCC 2998
[9] = test system: HCT-116
[10] = test system: HCT-15
[11] = test system: HL-60
[12] = test system: HOP-18
[13] = test system: HOP-62
[14] = test system: HOP-92
[15] = test system: HT-29
[16] = test system: IGROV-1
[17] = test system: K562
[18] = test system: KM-20L2
[19] = test system: KM12
[20] = test system: LOX IMVI
[21] = test system: M19-MEL
[22] = test system: MCF7
[23] = test system: MOLT-4
[24] = test system: Malme-3M
[25] = test system: NCI-H226
[26] = test system: NCI-H23
[27] = test system: NCI-H460
[28] = test system: NCI-H522
[29] = test system: NCI/ADR-RES
[30] = test system: OVCAR-3
[31] = test system: OVCAR-4
[32] = test system: OVCAR-5
[33] = test system: OVCAR-8
[34] = test system: RPMI-8226
[35] = test system: RXF 393
[36] = test system: SF-268
[37] = test system: SF-295
[38] = test system: SF-539
[39] = test system: SK-MEL-28
[40] = test system: SK-MEL-2
[41] = test system: SK-MEL-5
[42] = test system: SK-OV-3
[43] = test system: SN12C
[44] = test system: SNB-19
[45] = test system: SNB-75
[46] = test system: SNB-78
[47] = test system: SW-620
[48] = test system: U-251
[49] = test system: UACC-257
[50] = test system: UACC-62
[51] = test system: UO-31
[52] = test system: XF498
[53] = test system: 786-0
[54] = test system: ACHN
[55] = test system: CAKI-1
[56] = test system: DLD-1
[57] = test system: DU-145
[58] = test system: Hs-578T
[59] = test system: LXFL 529
[60] = test system: M14
[61] = test system: MDA-MB-231
[62] = test system: MDA-MB-435
[63] = test system: MDA-N
[64] = test system: PC-3
[65] = test system: SR
[66] = test system: T47D
[67] = test system: TK-10

Measured: GI50

ClCc1nnc2n1-c1ccc(Cl)cc1SC2
inactive: [1] 4.03 µM | [2] 5.05 µM | [3] 2.19 µM | [4] 4.06 µM | [5] 2.8 µM | [6] 2.92 µM | [7] 13.3 µM | [8] 4.06 µM | [9] 3.1 µM | [11] 1.56 µM | [12] 2.92 µM | [13] 6.25 µM | [14] 2.55 µM | [15] 3.65 µM | [16] 2.94 µM | [17] 2.9 µM | [18] 4.67 µM | [19] 4.35 µM | [20] 1.49 µM | [21] 3.23 µM | [22] 4.2 µM | [23] 1.45 µM | [24] 3.88 µM | [25] 1.94 µM | [26] 2.35 µM | [27] 3.66 µM | [28] 1.63 µM | [29] 1.78 µM | [30] 2.17 µM | [31] 3.89 µM | [32] 12.2 µM | [33] 4.02 µM | [34] 3.3 µM | [35] 2.23 µM | [36] 2.87 µM | [37] 2.21 µM | [38] 3.47 µM | [39] 4.74 µM | [40] 2.81 µM | [41] 2.62 µM | [42] 3.56 µM | [43] 7.26 µM | [44] 13 µM | [45] 3.15 µM | [46] 5.4 µM | [47] 4.55 µM | [48] 6.59 µM | [49] 2.16 µM | [50] 2.69 µM | [51] 15.1 µM | [52] 5.57 µM
4.56 µM: [10]

O=C(CCC1CCCCN1)Nc1ccc2c(c1)C(=O)c1ccc(NC(=O)CCN3CCCCC3)cc1C2=O (configuration not stated)
active: [35] 0.776 µM | [65] 0.493 µM
inactive: [53] 9.75 µM | [1] 4.14 µM | [2] 5.19 µM | [54] 1.45 µM | [55] 2.11 µM | [3] 8.73 µM | [4] 1.35 µM | [56] 1.61 µM | [5] 1.59 µM | [6] 2.54 µM | [57] > 10 µM | [7] > 10 µM | [8] > 10 µM | [9] 2.03 µM | [11] 5.77 µM | [12] 2.79 µM | [13] 9.29 µM | [14] 2 µM | [15] 2.52 µM | [58] > 10 µM | [16] 6.82 µM | [17] 1.83 µM | [18] 3.21 µM | [19] 2.33 µM | [20] 1.21 µM | [59] 1.32 µM | [60] 1.32 µM | [21] 2.04 µM | [22] > 10 µM | [61] > 10 µM | [62] > 10 µM | [63] > 10 µM | [23] 1.95 µM | [24] 1.43 µM | [25] 4.66 µM | [26] 2.21 µM | [27] 4.17 µM | [28] 1.38 µM | [29] > 10 µM | [30] 2.37 µM | [31] 1.65 µM | [32] 2.34 µM | [33] 2.37 µM | [64] > 10 µM | [34] 7.55 µM | [36] 3.3 µM | [37] 3.56 µM | [38] 2.97 µM | [39] 1.7 µM | [40] 1.37 µM | [41] 1.4 µM | [42] 5.3 µM | [43] 1.91 µM | [44] 7.19 µM | [45] 2.62 µM | [46] 4.56 µM | [47] > 10 µM | [66] > 10 µM | [67] 1.22 µM | [48] 8.13 µM | [49] 1.44 µM | [50] 1.22 µM | [51] 1.21 µM
1.58 µM: [10]

O=C1C2C3C=C4c5ccccc5N(c5ccccc5)C4([C@@H]2C(=O)N1c1ccc(F)cc1)[C@H]1C(=O)N(c2ccc(F)cc2)C(=O)[C@@H]31 (some centres not stated)
> 100 µM: [10]
inactive: [53] > 100 µM | [2] > 100 µM | [54] > 100 µM | [3] > 100 µM | [4] > 100 µM | [56] > 100 µM | [5] > 100 µM | [7] > 100 µM | [8] > 100 µM | [11] > 100 µM | [12] > 100 µM | [14] > 100 µM | [17] > 100 µM | [19] > 100 µM | [20] > 100 µM | [60] > 100 µM | [21] > 100 µM | [23] > 100 µM | [24] > 100 µM | [25] > 100 µM | [26] > 100 µM | [28] > 100 µM | [30] > 100 µM | [32] > 100 µM | [33] > 100 µM | [34] > 100 µM | [35] 81.3 µM | [36] 37.2 µM | [37] > 100 µM | [38] > 100 µM | [39] > 100 µM | [40] > 100 µM | [43] 82 µM | [44] > 100 µM | [45] > 100 µM | [46] 82.2 µM | [65] > 100 µM | [47] > 100 µM | [67] > 100 µM | [48] > 100 µM | [49] > 100 µM | [51] 20.9 µM | [52] > 100 µM

Reference: ChEMBL document CHEMBL1201862, “PubChem BioAssay data set” (2004)
